# Reference: patent US20180339066A1, “Methods and Compositions for Enhancing Transduction Efficiency of Retroviral Vectors” (The Scripps Research Institute, priority 2013, published 2018)
# What was measured:
# [1] = test system: human cord blood CD34+ cells; assay: HIV-1 based lentiviral vector transduction of cord blood CD34+ cells, GFP by flow cytometry; format: cell-based; conditions: for transduction efficiency: added with vector or delayed by 2 or 6 hours
# [2] = test system: p21 mRNA; assay: p21 mRNA quantification by RT-PCR; conditions: cord blood CD34+ cells, 20 μg/ml rapamycin, 6 hours
# [3] = test system: human cord blood CD34+ cells; assay: Integrase-defective lentiviral vector (IDLV) transduction of cord blood CD34+ cells; conditions: MOI=50, two days after transduction
# Method: Human cord blood CD34^+ cells were stimulated for 24 h and transduced with IDLVs, MOI=50, with or without 10 ng/μl rapamycin. GFP expression was assayed by flow cytometry every three days from 2-14 days post transduction. Data represent mean and standard deviation of independent transductions of two separate donors.
# Cord blood CD34^+ cells were transduced with IDLVs in the absence or presence of rapamycin, and GFP expression was followed from 2-14 days post transduction.
# [4] = test system: stimulated cord blood CD34+ cells; assay: Quantification of HIV-1 reverse transcription products by qPCR; conditions: MOI=25, 20 μg/ml rapamycin
# Method: Quantification of HIV-1 reverse transcription products. Stimulated cord blood CD34^+ cells (2-3E5) were transduced with an MOI of 25 in the presence of 20 μg/ml rapamycin or DMSO, and harvested at 6, 12, or 24 hours after the start of transduction by freezing cell pellets at −80° C. Total DNA was extracted using the QiaAmp DNA mini kit, and treated with Dpnl for 2-4 hours to eliminate plasmid DNA. Quantitative PCR was carried out on the Roche LightCycler 480 using previously published primer and probe sequences (Prasad et al., HIV Protocols: Second Edition 485, 2009).
# [5] = test system: cord blood CD34+ cells; assay: Colony forming assay and parallel liquid culture of transduced cord blood CD34+ cells; format: cell-based, human; conditions: stimulated cord blood CD34+ cells, MOI=25
# Method: (§1) Colony forming assay, NSG mouse reconstitution, and serial transplantation. For colony forming assays, transduced cord blood CD34^+ HSPCs were counted and 100 cells were seeded in 1.5 ml methocult4434 (StemCell Technologies) in 30 mm dishes in triplicate. Total BFU-E, CFU-GM, CFU-M, and CFU-GEMM colonies, as well as GFP+ colonies, were counted 16-18 days after plating using a fluorescent microscope. […] Mice were bled every 4 weeks starting from 8 weeks post injection, and sacrificed at 19 weeks to assess engraftment and GFP expression in the bone marrow, spleen, and thymus by flow cytometry. For serial transplantation, primary recipients were sacrificed at 12 weeks post injection, and bone marrow cells from both femurs of one mouse were injected into two irradiated secondary recipients, which were again sacrificed at 12 weeks post injection for flow cytometric analysis of bone marrow and spleen. NSG mice were maintained at the Scripps Research Institute Molecular and Experimental Medicine animal facility.
# To determine whether primitive HSCs in the heterogeneous CD34^+ population are transduced in the presence of rapamycin, we tested the ability of transduced cord blood CD34^+ cells to engraft irradiated NSG mice. A fraction of transduced cells was assessed in parallel liquid culture and colony forming assays. […]
# [6] = test system: NSG-repopulating cells; assay: NSG mouse reconstitution with transduced cord blood CD34+ cells (long-term engraftment); format: in vivo, human
# Method: as §1
# To determine whether primitive HSCs in the heterogeneous CD34^+ population are transduced in the presence of rapamycin, we tested the ability of transduced cord blood CD34^+ cells to engraft irradiated NSG mice. A fraction of transduced cells was assessed in parallel liquid culture and colony forming assays. […] Mice were sacrificed 19 weeks after injection to assess long-term engraftment. […] This four-fold transduction enhancement in NSG-repopulating cells was more pronounced than in parallel liquid culture or CFU assay (FIG. 2C), indicating preferential transduction of primitive HSCs in the presence of rapamycin.
# [7] = test system: primitive HSCs (serial repopulating cells); assay: Serial NSG mouse transplantation of transduced cord blood CD34+ cells; format: in vivo, human
# Method: as §1
# To stringently establish transduced cells as primitive HSCs, we carried out serial NSG mouse transplantation with cord blood CD34^+ cells transduced with or without rapamycin. […] Bone marrow cells of secondary recipients were again analyzed 12 weeks post injection.
# [8] = NSG mice, 19 weeks after injection
structure (smiles),measurement,setting,value
CCC(=O)N1CCN(c2ccc(-n3c(=O)ccc4cnc5ccc(-c6cnc7ccccc7c6)cc5c43)cc2C(F)(F)F)CC1 [Torin 1],in vitro transduction efficiency relative to DMSO control,[1]; 5 μM,enhanced
same,transduction enhancement compared with rapamycin,[1]; 5 μM,comparable
CCN(CC)CCCC(C)Nc1ccnc2cc(Cl)ccc12 (stereo not shown) [chloroquine],transduction efficiency,[1],decreased
CO[C@H]1C[C@@H]2CC[C@@H](C)[C@@](O)(O2)C(=O)C(=O)N2CCCC[C@H]2C(=O)O[C@H]([C@H](C)C[C@@H]2CC[C@@H](O)[C@H](OC)C2)CC(=O)[C@H](C)/C=C(\C)[C@@H](O)[C@@H](OC)C(=O)[C@H](C)C[C@H](C)/C=C/C=C/C=C/1C [rapamycin],up-regulation in p21 mRNA,[2],3-5 fold
same,increase in percentage of GFP expressing cells,[3],17%
same,increase in per cell amount of 2-LTR circles,[4],2-to-3 fold
same,increase in per cell amount of viral full-length DNA,[4],2-to-3 fold
same,efficiency or proportion of colony formation,[5],did not significantly affect
same,GFP positivity in human CD45+ cells in mouse bone marrow,"[6]; 20 μg/ml rapamycin during transduction, 19 weeks, control 20%",80%
same,long-term engraftment ability of CD34+ cells,[6]; [8],did not impair
same,reconstitution levels in bone marrow vs control,[6]; [8],not statistically different
same,gene marking frequency relative to other known methods of treatment,[7]; human hematopoietic stem cells,4-5 fold
same,EGFP-marked human cell populations in secondary recipients,[7]; secondary mouse recipients,> 90%
same,GFP positivity (percentage of GFP-expressing cells),"[1]; pre-stimulated cord blood CD34+ cells, rapamycin present during transduction, 11-14 days in culture, control 40%",80%
CO/C1=C\C(C)=C\[C@@H](C)[C@@H](O)[C@@H](C)C/C(C)=C/C=C/[C@H](OC)[C@@H]([C@@H](C)[C@@H](O)[C@H](C)[C@@]2(O)C[C@@H](O)[C@H](C)[C@@H](C(C)C)O2)OC1=O [bafilomycin Al],transduction efficiency,[1],decreased
"Cn1cnc(N)c2ncnc1-2 [3-methyadenine, 3-methyladenine]",GFP expression,[1]; autophagosome formation inhibited during transduction,decreased
